The results in this text go back to patent publication US7253175B2, “Method for treating athlete's foot” (priority 2003, dated 2007).

This assay has as its system athlete's foot (fungal infection of toe nails and skin of the feet). The assay is described as follows: Treatment of a patient with athlete's foot (case example). In kind it is in vivo, human. The source says: Fungal infections, including tineapedis (fungal infections on the feet), tineamanus (fungal infections on the hands) and tineacorporis (fungal infections on the body), are diagnosed by methods or tests commonly conducted by a person of ordinary skill in the art. The common symptoms of such disease are described above. In the case of fungal infection on nails such as finger nails and toenails, the infected areas usually show thickening of the nails with white spots, while if the skin is infected, itching scaling, redness and/or blisters will appear. A laboratory test may be conducted by culturing a skin sample or nail sample in the infected area in an appropriate medium to observe the growth of fungi. The infections may also be identified by scraping the infected skin or nail and examining the such specimen under a microscope in the presence of potassium hydroxide, which assists to determine the presence of fungi.
A patient suffered from athlete's foot for four years. The patients toe nails had became whitening, thickening and cracking due to the infection. […] The patient was reported to experienced pain due to the thickening and cracking of the toe nails the swelling of the skin. […]

Counter-ions that a name gives are not always drawn.

Take `CC(C)[C@H](N)C(=O)OCCOCn1cnc2c(=O)[nH]c(N)nc21` [Valtrex, L-valine, 2-[(2-amino-1,6-dihydro-6-oxo-9H-purin-9-yl)methoxy]ethyl ester, monhydrochloride]: the “laboratory test for fungal infections on the patient's toe nails and skin” value (after daily dosage of three grams divided into three times for seven days) is on record as “no longer fungal infections”. Further, the “symptoms of the patient's athlete's foot at the end of treatment” value (patient, about 230 pounds, daily dosage of three grams divided into three times for seven days) was “completely disappear”.
